Patent US20030083271A1, “Topoisomerase I selective cytotoxic sugar derivatives of indolopyrrolocarbazoles” (priority 2001, published 2003)

Key:
[1] = tested on: P388 murine leukemia cells; test: In vitro cell-based cytotoxicity, parental P388 cells; conditions: Mus musculus, 72 h, median cytotoxic concentration, 3 days continuous exposure
Experimental: The proliferation inhibition activity against the murine P388 cell line was measured as follows. Evaluation of a soluble tetrazolium/formazan assay for cell growth and drug sensitivity in culture, using human and other tumor cell lines, was done according to the procedure described in Cancer Res. 1988, 48, 4827-4833. Cells were plated at 4000 cells/well in 96 well microtiter plates and 24 h later drugs were added and serially diluted. The cells were incubated at 37° C. for 72 h, at which time a tetrazolium dye, XTT, containing phenazine methosulfate was added. A dehydrogenase enzyme in live cells reduced the XTT to a form that absorbs light at 450 nm, which could be quantitated spectrophotometrically. The greater the absorbance the greater the number of live cells. The results are expressed as an IC50, which is the drug concentration required to inhibit cell proliferation (i.e., absorbance at 450 nm) to 50% of that of untreated control cells.
(§1) Similarly, P338 murine leukemia cells were maintained in RPMI 1640 supplemented with 20% fetal bovine serum and 10 μM 2-mercaptoethanol. A camptothecin resistant subline, P388/CPT45, was selected for resistance to camptothecin and is over 1000-fold resistant to this compound (Woessner, et al. Oncol. Res. 1992, 4, 481-488).
(§2) In vitro cytotoxicity was assessed in tissue culture cells by MTS (3-(4,5-dimethylthiazol-2-yl)-5-(3-carboxymethoxyphenyl)-2-(4-sulphenyl)-2H-tetrazolium, inner salt) assay (Riss and Moravec, Mol. Biol. Cell 1992, 3 (Suppl.), 184a). Cells were plated at 8,000 cell/well in 96 well microtiter plates and 24 hours later serial dilutions of the test compounds were made and added to the cells. The cells were incubated at 37° C. for 72 hours, at which time the tetrazolium dye, MTS at 333 μg/ml (final concentration), in combination with the electron coupling agent phenazine methosulfate at 25 μM (final concentration) was added. A dehydrogenase enzyme in live cells reduces the MTS to a form that absorbs light at 492 nm which can be quantitated spectrophotometrically. The greater the absorbance the greater the number of live cells. The results are expressed as an IC50, which is the drug concentration required to inhibit cell proliferation (i.e., absorbance at 492 nm) to 50% of that of untreated control cells.
The cytotoxic activity for certain compounds of the present invention, in both parental P388 and the camptothecin-resistant P388/CPT45 cell lines are shown below in Table I.

[2] = target: T1, purified human topoisomerase I (Homo sapiens, UniProt P11387); test: Topoisomerase I-mediated single strand DNA break induction (in vitro); type: biochemical; conditions: median effect concentration for inducing single-strand breaks in the DNA substrate; read-out: Topo I EC50
T1 construct: purchased Topogen
T1 sequence (P11387 1-765): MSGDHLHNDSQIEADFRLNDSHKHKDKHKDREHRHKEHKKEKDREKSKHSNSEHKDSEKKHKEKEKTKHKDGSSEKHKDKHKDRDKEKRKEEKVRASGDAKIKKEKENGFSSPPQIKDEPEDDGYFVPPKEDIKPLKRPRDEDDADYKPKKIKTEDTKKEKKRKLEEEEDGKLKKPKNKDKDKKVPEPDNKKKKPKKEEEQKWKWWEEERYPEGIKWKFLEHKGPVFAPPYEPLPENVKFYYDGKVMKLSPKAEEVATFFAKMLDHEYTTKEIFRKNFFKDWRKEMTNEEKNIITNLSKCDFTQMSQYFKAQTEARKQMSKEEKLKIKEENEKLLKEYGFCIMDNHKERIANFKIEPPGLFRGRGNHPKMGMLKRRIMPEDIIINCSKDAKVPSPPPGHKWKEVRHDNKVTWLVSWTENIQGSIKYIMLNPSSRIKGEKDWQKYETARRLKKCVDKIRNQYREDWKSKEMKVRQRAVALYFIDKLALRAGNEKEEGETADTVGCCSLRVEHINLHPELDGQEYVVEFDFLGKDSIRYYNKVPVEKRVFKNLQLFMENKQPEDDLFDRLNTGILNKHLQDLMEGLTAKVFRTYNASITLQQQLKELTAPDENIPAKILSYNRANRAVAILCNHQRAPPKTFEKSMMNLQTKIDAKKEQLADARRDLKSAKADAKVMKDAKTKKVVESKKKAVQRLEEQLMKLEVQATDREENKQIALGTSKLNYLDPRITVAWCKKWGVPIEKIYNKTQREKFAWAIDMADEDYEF
Experimental: Topoisomerase I activity was measured as described below. The procedure for assaying compound-induced, topoisomerase I-mediated single strand breaks in DNA was essentially that described by Hsiang, et al., (J. Biol. Chem. 1985, 260, 14873-14878). Samples dissolved in 100% DMSO as either […] or 10 mg/ml solutions, unless otherwise stated, were diluted in Tris-EDTA buffer. Marine bacteriophage PM2 DNA (Boehringer Mannheim) was also diluted in Tris-EDTA buffer to a concentration of 0.02 μg/μl. Different dilutions of the compound being evaluated were mixed with diluted DNA and this mixture was added to […] (one unit of enzyme activity is defined as the amount capable of relaxing 100 ng of supercoiled DNA in approximately 30 minutes at 37° C.) aliquots of purified human topoisomerase I (Topogen) in 2X reaction buffer to start the reaction. The compound-DNA-enzyme mixture was incubated for 30 minutes at 37° C. before stopping the reaction with warm stop buffer containing sodium dodecyl sulfate and proteinase K (Sigma). These mixtures were allowed to incubate at 37° C. for another 10 minutes, at which time the mixtures were removed from the waterbath and extracted with a 24:1 mixture of chloroform/isoamyl alcohol. Following centrifugation, aliquots of the aqueous phases were placed in wells of a 0.9% agarose (SeaKem) gel in Tris-borate buffer containing 0.5 μg/ml of ethidium bromide and subjected to electrophoresis for 15 hours to separate the different topological isomers and nicked and broken DNAs. After destaining the gel in water, the ethidium bromide stained DNA reaction products were visualized by exposing the gel to UV irradiation. Negatives of the photographs of the irradiated gels were scanned with a densitometer and areas under the peaks were calculated in order to obtain percent single strand DNA break formation for each sample. A median effective concentration (EC50) was obtained for each compound by interpolation between points of the resulting dose-effect curve which defines the potency of the compound for its effect in inducing topoisomerase I-mediated single strand breaks in DNA. The topoisomerase I activities for certain compounds of the present invention are shown below in Table I.

P388/CPT45 cells = test: Cytotoxicity in camptothecin-resistant P388/CPT45 cells relative to parental P388 (selectivity index R/S); type: cell-based, murine; conditions: IC50 P388/CPT45 cells divided by IC50 parental P388 cells
Source text: The present invention includes fluoro sugar and other sugar derivatives of indolopyrrolocarbazoles of formula (I), as defined above. […] Most importantly, the instant invention describes topo I active compounds, related to compounds disclosed in WO 98/07433 and co-pending U.S. application, Ser. No. 08/914566 (both herein incorporated by reference), which display a surprising and unexpected selectivity index when evaluated for cytotoxicity in certain cell lines which express normal levels of topo I required for cell proliferation, compared with cell lines that are deficient in or underexpress topo I. Said “selectivity index” (R/S) was generated by dividing the cytotoxic IC50 of a particular compound against a camptothecin-resistant murine leukemia cell line, P388/CPT45, by the IC50 generated when using the parent P388 cell line. […] A level of selectivity was judged to be advantageous and beneficial in, for example, modulating potential undesirable side effects and/or toxicity. The compounds of the present invention were selected from compounds generically disclosed in WO 98/07433 and co-pending U.S. patent application, Ser. No. 08/914566, on the basis of an unexpected and unpredictable selectivity index (see Table I and II). […] Simple changes in the substitution of the sugar portion or the indolopyrrolocarbazole portion of the present invention will change the selectivity. This change in selectivity is not predictable by one skilled in the art.
as §1, §2
The selectivity index (R/S) is defined as the ratio obtained by dividing the IC50 value obtained using P388/CPT45 cells by that obtained using parental P388 cells. The R/S ratios used to determine the relative topo I selectivity of selected compounds of this invention are shown below in Table I.

Row | SMILES | IC50 [1] | EC50 [2] | Selectivity Index R/S (P388/CPT45 cells)
1 | [N-]=[N+]=N[C@H]1[C@H](O)[C@@H](O)[C@H](n2c3ccc(F)cc3c3c4c(c5c6cc(F)ccc6[nH]c5c32)C(=O)NC4=O)O[C@@H]1CO [Example 10] | 0.068 µM | 0.02 µM | 121.3
2 | NC[C@H]1O[C@@H](n2c3cc(F)c(F)cc3c3c4c(c5c6cc(F)c(F)cc6sc5c32)C(=O)NC4=O)[C@H](O)[C@@H](O)[C@@H]1F [Example 12, 12-[6-Amino-4,6-dideoxy-4-fluoro-β-D-glucopyranosyl]-2,3,9,10-tetrafluoro-5H,13H-benzo[b]thienyl[2,3-a]pyrrolo[3,4-c]carbazole-5,7(6H)-dione] | 0.002 µM | 0.02 µM | 131.5
3 | O=C1NC(=O)c2c1c1c3cc(F)ccc3sc1c1c2c2cc(F)ccc2n1[C@@H]1O[C@H](CN2CCOCC2)[C@@H](O)[C@H](O)[C@H]1O [Example 13] | 0.1 µM | 0.16 µM | 140.0
4 | O=C1NC(=O)c2c1c1c3cc(F)c(F)cc3[nH]c1c1c2c2cc(F)c(F)cc2n1[C@@H]1O[C@H](CO)C(F)(F)[C@H](O)[C@H]1O [Example 14] | 0.006 µM | 0.03 µM | 140.3
5 | O=C1NC(=O)c2c1c1c3cc(F)ccc3[nH]c1c1c2c2cc(F)ccc2n1[C@@H]1O[C@H](CF)C[C@H](O)[C@H]1O [Example 15] | 0.005 µM | 0.03 µM | >149.7
6 | O=C1NC(=O)c2c1c1c3cc(F)c(F)cc3[nH]c1c1c2c2cc(F)c(F)cc2n1[C@@H]1O[C@H](CF)C[C@@H](F)[C@H]1O [Example 17, 12-[3,6-Difluoro-3,4,6-trideoxy-β-D-allopyranosyl]-2,3,9,10-tetrafluoro-12,13-dihydro-5H-indolo[2,3-a]pyrrolo[3,4-c]carbazole-5,7(6H)-dione] | 0.041 µM | 0.45 µM | 179.2
7 | [N-]=[N+]=N[C@H]1[C@@H](O)[C@@H](O)[C@H](n2c3ccc(F)cc3c3c4c(c5c6cc(F)ccc6[nH]c5c32)C(=O)NC4=O)O[C@@H]1CF [Example 19] | < 0.003 µM | 0.06 µM | >195.2
8 | O=C1NC(=O)c2c1c1c3cc(F)ccc3[nH]c1c1c2c2cc(F)ccc2n1[C@@H]1O[C@H](CO)C[C@@H](O)[C@H]1O [Example 20, 12-[4-Deoxy-β-D-allopyranosyl)-3,9-difluoro-12,13-dihydro-5H-indolo [2,3-a]pyrrolo[3,4-c]carbazole-5,7(6H)-dione] | 0.002 µM | 0.02 µM | 201.2
9 | O=C1NC(=O)c2c1c1c3cc(F)c(F)cc3[nH]c1c1c2c2cc(F)c(F)cc2n1[C@@H]1O[C@H](CO)C[C@H](O)[C@H]1O [Example 21] | 0.005 µM | 0.07 µM | 207.7
10 | O=C1NC(=O)c2c1c1c3cc(F)c(F)cc3[nH]c1c1c2c2cc(F)c(F)cc2n1[C@@H]1O[C@H](CF)[C@@H](F)[C@H](O)[C@H]1O [Example 22, 12-[4,6-Difluoro-4,6-dideoxy-β-D-glucopyranosyl]-2,3,9,10-tetrafluoro-12,13-dihydro-5H-indolo[2,3-a]pyrrolo[3,4-c]carbazole-5,7(6H)-dione] | 0.014 µM | 0.08 µM | 287.7
11 | O=C1NC(=O)c2c1c1c3cc(F)ccc3[nH]c1c1c2c2cc(F)ccc2n1[C@@H]1O[C@H](CO)C(F)(F)[C@H](O)[C@H]1O [Example 25, 12-[4,4-Difluoro-4-deoxy-β-D-glucopyranosyl]-3,9-difluoro-12,13-dihydro-5H-indolo[2,3-a]pyrrolo[3,4-c]carbazole-5,7(6H)-dione] | 0.003 µM | 0.01 µM | 381.5
12 | O=C1NC(=O)c2c1c1c3cc(F)c(F)cc3[nH]c1c1c2c2cc(F)c(F)cc2n1[C@@H]1O[C@H](CO)[C@@H](F)[C@H](O)[C@H]1O [Example 28, 12-[4-Deoxy-4-fluoro-β-D-glucopyranosyl]-2,3,9,10-tetrafluoro-12,13-dihydro-5H-indolo[2,3-a]pyrrolo[3,4-c]carbazole-5,7(6H)-dione] | 0.004 µM | 0.05 µM | 499.2
13 | O=C1NC(=O)c2c1c1c3cc(F)ccc3[nH]c1c1c2c2cc(F)ccc2n1[C@@H]1O[C@H](CO)C[C@H](O)[C@H]1O [Example 31, 12-[4-Deoxy-β-D-glucopyranosyl]-3,9-difluoro-12,13-dihydro-5H-indolo[2,3-a]pyrrolo[3,4-c]carbazole-5,7(6H)-dione] | 0.004 µM | 0.08 µM | 720.7
14 | O=C1NC(=O)c2c1c1c3cc(F)ccc3sc1c1c2c2cc(F)ccc2n1[C@@H]1O[C@H](CSc2nccc(O)n2)[C@@H](O)[C@H](O)[C@H]1O [Example 35] | > 7.68 µM | 0.24 µM | <1.0
